In patent publication US4654326A, “Inhibition of plant viruses with oligonucleotides” (priority 1984, dated 1987):
“Also recorded” adds a separate entry of the source. Read-outs that look alike come from different tables or passages of the source.

Key:
TMV [1] = assay: Inhibition of TMV replication in intact N. glutinosa leaves (local lesion infectivity test); assay type: in vivo, tobacco mosaic virus; details: for inhibition at 1 µM: Tobacco mosaic virus, 48 h, read-out: Inhibition of TMV replication in N. glutinosa leaves; for Inhibition of TMV replication in N. glutinosa leaves: 1 × 10^-6 M in the infecting solution, 48 hours after infection (Table 3)
TMV [2] = assay: Inhibition of TMV replication in tobacco protoplasts (homogenates assayed for local lesions); assay type: cell-based, tobacco mosaic virus; details: for inhibition at 0.1 µM: Tobacco mosaic virus, 1 × 10^-7 M, added within 3 hours of infection, average of four experiments
Method: (§1) Plant material treatment and measurement of infectivity. Partially purified AVF was prepared. The growth of N. glutinosa, N. tabacum Var. "Samsun", N. tabacum cv. Samsun NN, and preparation and inoculation of protoplasts were as described. To evaluate the effect of 2',5'-cores, nucleotides and nucleosides on TMV replication, various concentrations were added to 10 ml of protoplast suspension (1×10^5 cells/ml) at various times after inoculation with TMV. Protoplasts were incubated at 25° C. under continuous illumination of about 1500 Lx. At various times protoplasts were collected by centrifugation and homogenized. The homogenate was inoculated onto 12 half-leaves of N. glutinosa plants and compared to a standard solution of purified TMV on the opposite half-leaves. Lesion counts were adjusted to 10^6 live protoplasts and calibrated. Control protoplasts (no Nucleotides added) were assayed simultaneously. The assays for antiviral activity on TMV-infected tobacco leaf discs were done by enzyme-linked immunosorbent assay. The ability of the 2',5'-cores, nucleosides, and nucleotides to inhibit TMV replication in the intact plant was determined by infectivity tests as follows. Solutions containing 5 μg/ml TMV, 0.1 g carborundum (100 Tyler mesh), and 2',5'-cores, nucleosides, or nucleotides were applied onto 12 half-leaves of N. glutinosa. The remaining half-leaves were controls (inoculated with a solution containing no nucleotides). The infection was allowed to proceed 48 hours under continuous illumination.
the TMVinfected protoplasts within 3 hours of infection.
^b Average of four experiments.
by the 2',5cores, nucleosides and nucleotides was calculated as the
percent of local leasions produced in N. glutinosa treated by homogenates
of protoplasts compared to nontreated protoplasts.

N. glutinosa = assay type: in vivo; details: non-infected plants, 1×10^-6 M, two week period
Method: Effect of 2',5'-adenylate trimer core and its analogs on TMV replication in intact plants. […] The cores inhibited the formation of local lesions following TMV infection by 89-99% (Table 3). […] Non-infected plants were treated with 1×10^-6 M 2',5'adenylate trimer core, 2',5'-cordycepin trimer core, 2',5'-A-A-ara-A, and 2',5'-A-A-Tu (data not shown).

TMV [3] = assay: TMV replication in TMV-infected tobacco leaf discs (ELISA); assay type: cell-based, tobacco mosaic virus; details: up to 2×10^-7 M (FIG. 1)
Method: as §1, with “Solutions containing 5 μg/ml TMV, 0.1 g carborundum (100 Tyler mesh), and 2',5'-cores, nucleosides, or nucleotides were applied onto 12 half-leaves of N. glutinosa. The remaining half-leaves were controls (inoculated with a solution containing no nucleotides). The infection was allowed to proceed 48 hours under continuous illumination.” left out
TMV-infected tobacco leaf discs, treatment and TMV determination. […] Discs were removed at various times after TMV inoculation and their TMV content was determined. […]

[4] = read-out: Inhibition of TMV replication after 48 hr
[5] = read-out: Inhibition of TMV replication after 72 hr
[6] = 1×10^-6 M in the TMV-infecting solution
[7] = read-out: Inhibition of TMV replication after 24 hr

| Compound | inhibition at 1 µM (TMV [1]) | Inhibition of TMV replication in protoplasts (in words) (TMV [2]) | inhibition at 0.1 µM (TMV [2]; [4]) | also measured |
| --- | --- | --- | --- | --- |
| Nc1ncnc2c1ncn2[C@@H]1O[C@H](COP(=O)(O)O)C[C@H]1O [Cordycepin monophosphate, Cordycepin 5'-monophosphate] | 0% | – | – | – |
| Nc1ncnc2c1ncn2[C@@H]1O[C@H](CO)C[C@H]1O [Cordycepin, cordycepin] | 0% | less inhibitory | 21% | inhibition at 0.1 µM (TMV [2]; [5]): 32% |
| adenylyl-(2' 5')-adenylyl-(2' 5)-tubercidin [2',5'-A-A-Tu] | – | – | – | Inhibition of TMV replication in N. glutinosa (in words) (TMV [1]; [6]): potent inhibitors of TMV replication; Inhibition of TMV replication in N. glutinosa leaves (TMV [1]): 95%; Inhibition of TMV replication in N. glutinosa (in words) (TMV [1]; no single concentration stated): also inhibited TMV replication; Toxicity (chlorosis or necrosis) (N. glutinosa): No toxicity (chlorosis or necrosis) was observed |
| Nc1ncnc2c1ccn2[C@@H]1O[C@H](CO)[C@@H](O)[C@H]1O [Tubercidin, tubercidin] | 0% | – | – | – |
| Nc1ncnc2c1ncn2[C@@H]1O[C@H](COP(=O)(O)O)[C@@H](O)[C@H]1O [AMP] | 10% | less inhibitory; also recorded: some inhibition of TMV replication | 33% | Inhibition of TMV replication in tobacco leaf discs (in words) (TMV [3]): no inhibition of TMV replication; inhibition at 0.1 µM (TMV [2]; [7]): 22% |
| OC[C@H]1O[C@@H](n2cnc3c(O)ncnc32)[C@H](O)[C@@H]1O [Inosine, inosine] | 0% | less inhibitory | 22% | inhibition at 0.1 µM (TMV [2]; [5]): 25% |
| Nc1ncnc2c1ncn2[C@@H]1O[C@H](CO)[C@@H](O)[C@H]1O [Adenosine, adenosine] | 0% | less inhibitory | 0% | Inhibition of TMV replication in tobacco leaf discs (in words) (TMV [3]): no inhibition of TMV replication; inhibition at 0.1 µM (TMV [2]; [7]): 14%; Inhibition of TMV replication in protoplasts (in words) (TMV [2]; listed as adenosine): some inhibition of TMV replication |
| Nc1ncnc2c1ncn2[C@@H]1O[C@H](COP(=O)(O)O)[C@@H](O)[C@@H]1O [Ara-AMP] | 0% | – | – | – |
| adenylyl-(2' 5')-adenylyl-(2' 5')-9-β-D-arabinofuranosyladenine [2',5'-A-A-ara-A] | – | – | – | Inhibition of TMV replication in N. glutinosa (in words) (TMV [1]; [6]): potent inhibitors of TMV replication; Inhibition of TMV replication in N. glutinosa leaves (TMV [1]): 94%; Inhibition of TMV replication in N. glutinosa (in words) (TMV [1]; no single concentration stated): inhibition of TMV replication; Inhibition of TMV replication in N. glutinosa (in words) (TMV [1]; no single concentration stated, listed as A-A-ara-A): also inhibited TMV replication; Toxicity (chlorosis or necrosis) (N. glutinosa): No toxicity (chlorosis or necrosis) was observed |
| Nc1ncnc2c1ccn2[C@@H]1O[C@H](COP(=O)(O)O)[C@@H](O)[C@H]1O [TuMP, tubercidin 5'-monophosphate] | 0% | – | – | – |
| Nc1ncnc2c1ncn2[C@@H]1O[C@H](CO)[C@@H](O)[C@@H]1O [Ara-a] | 0% | – | – | – |
